Measurements from the supplement of paper PMC13207355.
Where a name gives a salt, the structure may show the parent alone.

How the values were obtained:
Settings in all cases: exposure time: 72 h
[1] = tested on: E13 (patient-derived glioblastoma stem cells of classical subtype); assay: surviving fraction (nuclei count normalised to DMSO); higher = more cells surviving (less toxic)
[2] = tested on: E21 (patient-derived glioblastoma stem cells of mesenchymal subtype); assay: as above
[3] = tested on: E28 (patient-derived glioblastoma stem cells of classical subtype); assay: as above
[4] = tested on: E31 (patient-derived glioblastoma stem cells of proneural subtype); assay: as above
[5] = tested on: E34 (patient-derived glioblastoma stem cells of proneural subtype); assay: as above
[6] = tested on: E57 (patient-derived glioblastoma stem cells of mesenchymal subtype); assay: as above
[7] = tested on: FT3469 (normal neural stem cell line); assay: as above
[8] = tested on: E13; assay: phenotypic distance (Euclidean, principal components) from DMSO controls (arbitrary units); higher = stronger morphological change
[9] = tested on: E21; assay: as above
[10] = tested on: E28; assay: as above
[11] = tested on: E31; assay: as above
[12] = tested on: E34; assay: as above
[13] = tested on: E57; assay: as above
[14] = tested on: FT3469; assay: as above
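For phenotypic distance (Euclidean, principal components) from DMSO controls in this document: cell Painting imaging in 384-well plates, CellProfiler features reduced to at least 20 principal components, Euclidean distance versus same-plate DMSO vehicle wells (0.1% v/v), median over six images per well.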
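For surviving fraction (nuclei count normalised to DMSO) in this document: nuclei counted by high-content imaging of Hoechst-stained cells in laminin-coated 384-well plates, relative to 0.1% DMSO vehicle wells, with staurosporine as cell-death control.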

`CN(C)C(=O)Oc1ccc[n+](C)c1` [Pyridostigmine iodide] showed a surviving fraction ([1]; 4.1 nM) of 1.02, a surviving fraction ([1]; 12.3 nM) of 1.15 and a surviving fraction ([1]; 37 nM) of 1.04. The surviving fraction ([1]; 111.1 nM) was 0.975, the surviving fraction ([1]; 333.3 nM) was 1.06 and the surviving fraction ([1]; 1000 nM) was 1.03. The surviving fraction ([1]; 3000 nM) was 0.989, the surviving fraction ([2]; 4.1 nM) was 0.969 and the surviving fraction ([2]; 12.3 nM) was 1.03. It also gave a surviving fraction ([2]; 37 nM) of 1.08, a surviving fraction ([2]; 111.1 nM) of 0.887 and a surviving fraction ([2]; 333.3 nM) of 0.981. It also gave a surviving fraction ([2]; 1000 nM) of 0.99, a surviving fraction ([2]; 3000 nM) of 1.04 and a surviving fraction ([3]; 4.1 nM) of 1.07. For the same compound, the surviving fraction ([3]; 12.3 nM) was 0.975, the surviving fraction ([3]; 37 nM) was 1.02 and the surviving fraction ([3]; 111.1 nM) was 1.05. It also gave a surviving fraction ([3]; 333.3 nM) of 0.949, a surviving fraction ([3]; 1000 nM) of 1.18 and a surviving fraction ([3]; 3000 nM) of 0.96. It also gave a surviving fraction ([4]; 4.1 nM) of 0.967, a surviving fraction ([4]; 12.3 nM) of 1.05 and a surviving fraction ([4]; 37 nM) of 0.914. It also gave a surviving fraction ([4]; 111.1 nM) of 1.02, a surviving fraction ([4]; 333.3 nM) of 1.07 and a surviving fraction ([4]; 1000 nM) of 0.944. For the same compound, the surviving fraction ([4]; 3000 nM) was 0.851, the surviving fraction ([5]; 4.1 nM) was 1.17 and the surviving fraction ([5]; 12.3 nM) was 0.894. It also gave a surviving fraction ([5]; 37 nM) of 1.01, a surviving fraction ([5]; 111.1 nM) of 0.914 and a surviving fraction ([5]; 333.3 nM) of 0.904. It also gave a surviving fraction ([5]; 1000 nM) of 1.05, a surviving fraction ([5]; 3000 nM) of 1.24 and a surviving fraction ([6]; 4.1 nM) of 1.16. For the same compound, the surviving fraction ([6]; 12.3 nM) was 1.04, the surviving fraction ([6]; 37 nM) was 0.923 and the surviving fraction ([6]; 111.1 nM) was 0.99. For the same compound, the surviving fraction ([6]; 333.3 nM) was 0.98, the surviving fraction ([6]; 1000 nM) was 1.01 and the surviving fraction ([6]; 3000 nM) was 0.937. It also gave a surviving fraction ([7]; 4.1 nM) of 1.01, a surviving fraction ([7]; 12.3 nM) of 1.12 and a surviving fraction ([7]; 37 nM) of 1.2. For the same compound, the surviving fraction ([7]; 111.1 nM) was 1.07, the surviving fraction ([7]; 333.3 nM) was 1.12 and the surviving fraction ([7]; 1000 nM) was 1.06. The surviving fraction ([7]; 3000 nM) was 1.15, the phenotypic distance ([8]; 4.1 nM) was 0.653 and the phenotypic distance ([8]; 12.3 nM) was 0.436. It also gave a phenotypic distance ([8]; 37 nM) of 0.527, a phenotypic distance ([8]; 111.1 nM) of 0.34 and a phenotypic distance ([8]; 333.3 nM) of 0.667. The phenotypic distance ([8]; 1000 nM) was 0.894, the phenotypic distance ([8]; 3000 nM) was 1.1 and the phenotypic distance ([9]; 4.1 nM) was 0.939. For the same compound, the phenotypic distance ([9]; 12.3 nM) was 0.565, the phenotypic distance ([9]; 37 nM) was 0.637 and the phenotypic distance ([9]; 111.1 nM) was 0.901. The phenotypic distance ([9]; 333.3 nM) was 3.46, the phenotypic distance ([9]; 1000 nM) was 1.09 and the phenotypic distance ([9]; 3000 nM) was 1.02. For the same compound, the phenotypic distance ([10]; 4.1 nM) was 0.458, the phenotypic distance ([10]; 12.3 nM) was 0.757 and the phenotypic distance ([10]; 37 nM) was 0.73. It also gave a phenotypic distance ([10]; 111.1 nM) of 0.63, a phenotypic distance ([10]; 333.3 nM) of 0.567 and a phenotypic distance ([10]; 1000 nM) of 0.651. The phenotypic distance ([10]; 3000 nM) was 0.684, the phenotypic distance ([11]; 4.1 nM) was 0.409 and the phenotypic distance ([11]; 12.3 nM) was 0.507. The phenotypic distance ([11]; 37 nM) was 0.601, the phenotypic distance ([11]; 111.1 nM) was 0.878 and the phenotypic distance ([11]; 333.3 nM) was 0.996. For the same compound, the phenotypic distance ([11]; 1000 nM) was 2.91, the phenotypic distance ([11]; 3000 nM) was 0.798 and the phenotypic distance ([12]; 4.1 nM) was 0.578. The phenotypic distance ([12]; 12.3 nM) was 0.331, the phenotypic distance ([12]; 37 nM) was 1.86 and the phenotypic distance ([12]; 111.1 nM) was 0.616. For the same compound, the phenotypic distance ([12]; 333.3 nM) was 0.79, the phenotypic distance ([12]; 1000 nM) was 0.731 and the phenotypic distance ([12]; 3000 nM) was 0.846. The phenotypic distance ([13]; 4.1 nM) was 0.948, the phenotypic distance ([13]; 12.3 nM) was 0.52 and the phenotypic distance ([13]; 37 nM) was 0.595. For the same compound, the phenotypic distance ([13]; 111.1 nM) was 0.71, the phenotypic distance ([13]; 333.3 nM) was 0.854 and the phenotypic distance ([13]; 1000 nM) was 0.982. It also gave a phenotypic distance ([13]; 3000 nM) of 0.881, a phenotypic distance ([14]; 4.1 nM) of 0.42 and a phenotypic distance ([14]; 12.3 nM) of 0.709. For the same compound, the phenotypic distance ([14]; 37 nM) was 0.762, the phenotypic distance ([14]; 111.1 nM) was 0.872 and the phenotypic distance ([14]; 333.3 nM) was 0.927. The phenotypic distance ([14]; 1000 nM) was 0.794 and the phenotypic distance ([14]; 3000 nM) was 1.39.

In the case of `Cc1ncc(CO)c(CO)c1O` [Pyridoxine hydrochloride], the surviving fraction ([1]; 4.1 nM) is reported as 0.907, the surviving fraction ([1]; 12.3 nM) is reported as 0.973 and the surviving fraction ([1]; 37 nM) is reported as 0.968. The surviving fraction ([1]; 111.1 nM) was 1.04, the surviving fraction ([1]; 333.3 nM) was 1.02 and the surviving fraction ([1]; 1000 nM) was 0.905. For the same compound, the surviving fraction ([1]; 3000 nM) was 1.08, the surviving fraction ([2]; 4.1 nM) was 0.9 and the surviving fraction ([2]; 12.3 nM) was 1.04. The surviving fraction ([2]; 37 nM) was 1.02, the surviving fraction ([2]; 111.1 nM) was 1.03 and the surviving fraction ([2]; 333.3 nM) was 0.92. For the same compound, the surviving fraction ([2]; 1000 nM) was 1.06, the surviving fraction ([2]; 3000 nM) was 1.03 and the surviving fraction ([3]; 4.1 nM) was 0.967. The surviving fraction ([3]; 12.3 nM) was 1.04, the surviving fraction ([3]; 37 nM) was 0.991 and the surviving fraction ([3]; 111.1 nM) was 0.922. The surviving fraction ([3]; 333.3 nM) was 0.975, the surviving fraction ([3]; 1000 nM) was 0.968 and the surviving fraction ([3]; 3000 nM) was 1.09. It also gave a surviving fraction ([4]; 4.1 nM) of 0.944, a surviving fraction ([4]; 12.3 nM) of 1.04 and a surviving fraction ([4]; 37 nM) of 1.03. It also gave a surviving fraction ([4]; 111.1 nM) of 1.1, a surviving fraction ([4]; 333.3 nM) of 1.03 and a surviving fraction ([4]; 1000 nM) of 1.01. For the same compound, the surviving fraction ([4]; 3000 nM) was 0.903, the surviving fraction ([5]; 4.1 nM) was 0.949 and the surviving fraction ([5]; 12.3 nM) was 0.918. The surviving fraction ([5]; 37 nM) was 1.19, the surviving fraction ([5]; 111.1 nM) was 1.07 and the surviving fraction ([5]; 333.3 nM) was 0.943. For the same compound, the surviving fraction ([5]; 1000 nM) was 0.916, the surviving fraction ([5]; 3000 nM) was 1.06 and the surviving fraction ([6]; 4.1 nM) was 1.03. For the same compound, the surviving fraction ([6]; 12.3 nM) was 0.99, the surviving fraction ([6]; 37 nM) was 1.01 and the surviving fraction ([6]; 111.1 nM) was 0.965. For the same compound, the surviving fraction ([6]; 333.3 nM) was 1.07, the surviving fraction ([6]; 1000 nM) was 0.984 and the surviving fraction ([6]; 3000 nM) was 0.981. For the same compound, the surviving fraction ([7]; 4.1 nM) was 0.987, the surviving fraction ([7]; 12.3 nM) was 0.951 and the surviving fraction ([7]; 37 nM) was 0.972. The surviving fraction ([7]; 111.1 nM) was 0.985, the surviving fraction ([7]; 333.3 nM) was 1.05 and the surviving fraction ([7]; 1000 nM) was 1.09. It also gave a surviving fraction ([7]; 3000 nM) of 0.987, a phenotypic distance ([8]; 4.1 nM) of 1.83 and a phenotypic distance ([8]; 12.3 nM) of 0.627. It also gave a phenotypic distance ([8]; 37 nM) of 0.476, a phenotypic distance ([8]; 111.1 nM) of 0.757 and a phenotypic distance ([8]; 333.3 nM) of 0.677. For the same compound, the phenotypic distance ([8]; 1000 nM) was 0.715, the phenotypic distance ([8]; 3000 nM) was 1.55 and the phenotypic distance ([9]; 4.1 nM) was 0.627. The phenotypic distance ([9]; 12.3 nM) was 0.496, the phenotypic distance ([9]; 37 nM) was 0.428 and the phenotypic distance ([9]; 111.1 nM) was 0.899. It also gave a phenotypic distance ([9]; 333.3 nM) of 0.724, a phenotypic distance ([9]; 1000 nM) of 0.617 and a phenotypic distance ([9]; 3000 nM) of 0.536. It also gave a phenotypic distance ([10]; 4.1 nM) of 0.428, a phenotypic distance ([10]; 12.3 nM) of 0.769 and a phenotypic distance ([10]; 37 nM) of 0.765. The phenotypic distance ([10]; 111.1 nM) was 0.622, the phenotypic distance ([10]; 333.3 nM) was 0.82 and the phenotypic distance ([10]; 1000 nM) was 1.01. For the same compound, the phenotypic distance ([10]; 3000 nM) was 0.741, the phenotypic distance ([11]; 4.1 nM) was 1.57 and the phenotypic distance ([11]; 12.3 nM) was 0.82. For the same compound, the phenotypic distance ([11]; 37 nM) was 0.958, the phenotypic distance ([11]; 111.1 nM) was 1.06 and the phenotypic distance ([11]; 333.3 nM) was 0.654. The phenotypic distance ([11]; 1000 nM) was 0.523, the phenotypic distance ([11]; 3000 nM) was 0.738 and the phenotypic distance ([12]; 4.1 nM) was 1.15. It also gave a phenotypic distance ([12]; 12.3 nM) of 0.917, a phenotypic distance ([12]; 37 nM) of 0.991 and a phenotypic distance ([12]; 111.1 nM) of 1.16. For the same compound, the phenotypic distance ([12]; 333.3 nM) was 0.742, the phenotypic distance ([12]; 1000 nM) was 0.612 and the phenotypic distance ([12]; 3000 nM) was 0.936. For the same compound, the phenotypic distance ([13]; 4.1 nM) was 1.25, the phenotypic distance ([13]; 12.3 nM) was 1.12 and the phenotypic distance ([13]; 37 nM) was 0.554. It also gave a phenotypic distance ([13]; 111.1 nM) of 0.42, a phenotypic distance ([13]; 333.3 nM) of 0.699 and a phenotypic distance ([13]; 1000 nM) of 0.559. The phenotypic distance ([13]; 3000 nM) was 0.776, the phenotypic distance ([14]; 4.1 nM) was 0.887 and the phenotypic distance ([14]; 12.3 nM) was 0.632. The phenotypic distance ([14]; 37 nM) was 0.988, the phenotypic distance ([14]; 111.1 nM) was 0.539 and the phenotypic distance ([14]; 333.3 nM) was 4.03. It also gave a phenotypic distance ([14]; 1000 nM) of 0.686 and a phenotypic distance ([14]; 3000 nM) of 0.525.
